Values of other authors as cited in article PMC12484987 (Scientific Reports, 2025).
“And” between values parts separate entries of the source, which are not always exact repeats. Equal entries are not always repeated.

What was measured:
HIV-1 RT = HIV-1 RT (Human immunodeficiency virus type 1 group M subtype B, UniProt P04585); settings: quinolines of the previous publication, cited from earlier work
[1] = system: MOLT-3 (Acute lymphoblastic leukemia); settings: read-out: IC50 cytotoxicity; cited from earlier work
[2] = system: HeLa (Cervical carcinoma); settings: read-out: IC50 cytotoxicity; cited from earlier work
HL-60 (promyeloblast) = settings: read-out: IC50 cytotoxicity; cited from earlier work

Compound: Cc1cc(C=O)cc(C)c1Oc1cc(Nc2ccc(C#N)cn2)nc2ccccc12 [4-(2’,6’-dimethyl-4’-formylphenoxy)−2-(5’’-cyanopyridin-2’’ylamino)quinoline]
- percentage inhibition against HIV-1 RT (HIV-1 RT): 44% and 44.5%
- IC50 (HIV-1 RT; read-out: IC50 against HIV-1 RT): 1.93 µM
- IC50 [1]: 12.7 µM
- IC50 [2]: 25.7 µM
- IC50 (HL-60 (promyeloblast)): 20.5 µM
